Source: ChEMBL document CHEMBL5143620, “Discovery of tricyclic HIV-1 integrase-LEDGF/p75 allosteric inhibitors by intramolecular direct arylation reaction” (Bioorg Med Chem Lett, 2022)
Several values for one entry are separate records, joined by “and”; a condition that tells them apart may be missing. Identical values can stand only once.

Assays:
[1] = system: Human immunodeficiency virus 1; experiment: Antiviral activity against wild type HIV-1 infected in human MT4 cells assessed as inhibition of viral infection by MTT assay; type: functional, organism-based
MT4 = experiment: Cytotoxicity against human MT4 cells assessed as reduction in cell viability by MTT assay; type: functional
[2] = system: Human immunodeficiency virus 1; experiment: Antiviral activity against […] HIV-1 harboring T174I mutant infected in human MT4 cells assessed as inhibition of viral infection by MTT assay; type: functional, organism-based
[3] = Oral bioavailability in rat at 1 mg/kg; type: ADME, organism-based; settings: in vivo
[4] = Metabolic stability in rat liver microsomes; type: ADME, Microsome
[5] = Elimination half life in rat at 0.5 mg/kg, iv; type: ADME, organism-based; settings: in vivo, read-out: beta t1/2 (converted)
[6] = AUC in rat at 0.5 mg/kg, iv; type: ADME, organism-based; parameters: dose 0.5 mg/kg, route iv; settings: in vivo
[7] = Metabolic stability in human liver microsomes; type: ADME, Microsome
[8] = Human immunodeficiency virus 1, MT4

| SMILES | EC50 [1, 8] [nM] | CC50 (MT4; Homo sapiens, MT4) [nM] | EC50 [2, 8] [nM] | further results |
| --- | --- | --- | --- | --- |
| Cc1ccc(-c2c(C)c3c(c(C)c2[C@H](OC(C)(C)C)C(=O)O)N(C)S(=O)(=O)c2ccccc2-3)cc1 | 76 | 19000 |  |  |
| Cc1ccc(-c2c(C)c3c(c(C)c2[C@H](OC(C)(C)C)C(=O)O)N(S(C)(=O)=O)Cc2ccc(C)cc2-3)cc1 | 12 | 13000 | 930 |  |
| Cc1c(-c2ccc3c(c2)CCCO3)c([C@H](OC(C)(C)C)C(=O)O)c(C)c2c1-c1c(F)cccc1CN2S(C)(=O)=O | 6.2 | 29000 | 170 |  |
| Cc1ccc(-c2c(C)c3c(c(C)c2[C@H](OC(C)(C)C)C(=O)O)N(S(C)(=O)=O)Cc2cccnc2-3)cc1 | 23 | 70000 | 3200 |  |
| Cc1ccc(-c2c(C)c3c(c(C)c2[C@H](OC(C)(C)C)C(=O)O)N(S(C)(=O)=O)Cc2ccc(F)cc2-3)cc1 | 11 | 15000 | 1200 |  |
| Cc1ccc(-c2c(C)c3c(c(C)c2[C@H](OC(C)(C)C)C(=O)O)N(S(C)(=O)=O)Cc2cccc(Cl)c2-3)cc1 | 15 | 16000 | 540 |  |
| Cc1ccc(-c2c(C)c3c(c(C)c2[C@H](OC(C)(C)C)C(=O)O)N(S(C)(=O)=O)Cc2ncccc2-3)cc1 | 58 | 61000 | > 5000 |  |
| Cc1ccc(-c2c([C@H](OC(C)(C)C)C(=O)O)c(C)c3[nH]c4ccccc4c3c2C)cc1 | 310 | 13000 |  |  |
| Cc1ccc(-c2c(C)c3c(c(C)c2[C@H](OC(C)(C)C)C(=O)O)N(S(C)(=O)=O)Cc2c(F)cccc2-3)cc1 | 10 | 24000 | 510 |  |
| Cc1ccc(-c2c(C)c3c(c(C)c2[C@H](OC(C)(C)C)C(=O)O)N(S(C)(=O)=O)Cc2cnccc2-3)cc1 | 65 | 65000 | > 5000 |  |
| Cc1ccc(-c2c(C)c3c(c(C)c2[C@H](OC(C)(C)C)C(=O)O)N(S(C)(=O)=O)Cc2cc(C#N)ccc2-3)cc1 | 7.3 | 35000 | 720 |  |
| Cc1ccc(-c2c([C@H](OC(C)(C)C)C(=O)O)c(C)c3c(c2C)c2ccccc2c(=O)n3C)cc1 | 730 | 25000 |  |  |
| Cc1ccc(-c2c(C)cc(N(Cc3ccccc3)S(C)(=O)=O)c(C)c2[C@H](OC(C)(C)C)C(=O)O)cc1 | 56 | 14000 |  |  |
| Cc1ccc(-c2c(C)c3c(c(C)c2[C@H](OC(C)(C)C)C(=O)O)N(S(C)(=O)=O)Cc2cccc(F)c2-3)c(C)c1 |  | 18000 | 1100 | EC50 ([1]; mt4): 3.7 nM and 9.5 nM; EC50 ([2]; mt4): 1500 nM; CC50 (MT4): 11000 nM |
| Cc1ccc(-c2c(C)c3c(c(C)c2[C@H](OC(C)(C)C)C(=O)O)N(S(C)(=O)=O)Cc2ccccc2-3)cc1 | 11 | 21000 | 810 |  |
| COc1ccc(-c2c(C)c3c(c(C)c2[C@H](OC(C)(C)C)C(=O)O)N(S(C)(=O)=O)Cc2cccc(F)c2-3)cc1 | 6.4 | 31000 | 320 |  |
| Cc1c(-c2ccc(Cl)cc2)c([C@H](OC(C)(C)C)C(=O)O)c(C)c2c1-c1c(F)cccc1CN2S(C)(=O)=O | 8.6 | 16000 | 340 |  |

| SMILES | EC50 [1, 8] [nM] | CC50 (MT4; Homo sapiens, MT4) [nM] | EC50 [2, 8] [nM] | further results |
| --- | --- | --- | --- | --- |
| Cc1c(-c2c(C)c3c(c(C)c2[C@H](OC(C)(C)C)C(=O)O)N(S(C)(=O)=O)Cc2cccc(F)c2-3)ccc2c1CCCO2 |  | 17000 |  | EC50 ([1]; mt4): 1.9 nM and 6.7 nM; EC50 ([2]; mt4): 48 nM and 420 nM; CC50 (MT4): 22000 nM |
| Cc1ccc(-c2c(C)c3c(c(C)c2[C@H](OC(C)(C)C)C(=O)O)N(S(C)(=O)=O)Cc2cccc(F)c2-3)cc1 | 5.5 | 17000 | 290 |  |
| Cc1ccc(-c2c(C)c3c(c(C)c2[C@H](OC(C)(C)C)C(=O)O)N(S(C)(=O)=O)Cc2ccncc2-3)cc1 | 20 | 25000 | > 5000 |  |
| Cc1ccc(-c2c(C)c3c(c(C)c2[C@H](OC(C)(C)C)C(=O)O)N(S(C)(=O)=O)Cc2cccc(F)c2-3)c(O)c1 |  |  |  | bioavailability [3]: 17.8%; EC50 ([1]; mt4): 4.6 nM and 21 nM; Stability [4]: 60.7%; CC50 (MT4): 59000 nM and 14000 nM; half-life [5]: 3.5 h; AUC [6]: 21.2 ng·h/mL; Stability [7]: 76.3% |
| Cc1ccc(-c2c(C)c3c(c(C)c2[C@H](OC(C)(C)C)C(=O)O)N(C)Cc2ccccc2-3)cc1 | 120 | 8400 |  |  |
| Cc1ccc(-c2c(C)c3c(c(C)c2[C@H](OC(C)(C)C)C(=O)O)N(S(C)(=O)=O)Cc2cc(C)ccc2-3)cc1 | 4.9 | 14000 | 440 |  |
| CC(=O)N1Cc2ccccc2-c2c(C)c(-c3ccc(C)cc3)c([C@H](OC(C)(C)C)C(=O)O)c(C)c21 | 30 | 27000 |  |  |
| Cc1ccc(-c2c(C)c3c(c(C)c2[C@H](OC(C)(C)C)C(=O)O)N(S(C)(=O)=O)Cc2cc(Cl)ccc2-3)cc1 | 3.9 | 13000 | 330 |  |
| COc1ccc2c(c1)CN(S(C)(=O)=O)c1c(C)c([C@H](OC(C)(C)C)C(=O)O)c(-c3ccc(C)cc3)c(C)c1-2 | 2.9 | 17000 | 270 |  |
| Cc1ccc(-c2c(C)c3c(c(C)c2[C@H](OC(C)(C)C)C(=O)O)N(S(C)(=O)=O)Cc2c(C)cccc2-3)cc1 | 8 | 17000 | 670 |  |
| Cc1c(-c2ccc(F)cc2)c([C@H](OC(C)(C)C)C(=O)O)c(C)c2c1-c1c(F)cccc1CN2S(C)(=O)=O | 12 | 32000 | 860 |  |
| Cc1c(-c2ccc3c(c2)NCCO3)c([C@H](OC(C)(C)C)C(=O)O)c(C)c2c1-c1c(F)cccc1CN2S(C)(=O)=O | 10 | 55000 | 150 |  |
| Cc1ccc(-c2c(C)c3c(c(C)c2[C@H](OC(C)(C)C)C(=O)O)N(S(C)(=O)=O)Cc2cc(C(F)(F)F)ccc2-3)cc1 | 3 | 10000 | 460 |  |
| Cc1ccc(-c2c(C)c3c(c(C)c2[C@H](OC(C)(C)C)C(=O)O)N(S(C)(=O)=O)Cc2cccc(C)c2-3)cc1 | 20 | 17000 | 600 |  |
| Cc1c(-c2ccc3c(c2)NCCC3)c([C@H](OC(C)(C)C)C(=O)O)c(C)c2c1-c1c(F)cccc1CN2S(C)(=O)=O | 4.3 | 30000 | 99 |  |
| Cc1ccc(-c2c(C)c3c(c(C)c2[C@H](OC(C)(C)C)C(=O)O)N(S(C)(=O)=O)Cc2cc(F)ccc2-3)cc1 | 5.7 | 19000 | 360 |  |
| Cc1nc2ccccc2c(-c2ccc3c4c(ccnc24)CCO3)c1[C@H](OC(C)(C)C)C(=O)O [BI-224436] | 20 | > 50000 | > 5000 |  |
